Among the data in patent publication US6855843B2, “Inhibitors of α4 mediated cell adhesion” (Tanabe Seiyaku Co., Ltd., priority 1998, dated 2005) are IC50 values, retold here.

Usually IC50 stands for the concentration that inhibits the measured activity by half.

For the test, the target named is T1, α4β7 (adhesion of RPMI cells to CS-1) (Homo sapiens, UniProt P13612+P26010).
T1 construct: endogenous in cells
T1 sequence (P13612 34-1032): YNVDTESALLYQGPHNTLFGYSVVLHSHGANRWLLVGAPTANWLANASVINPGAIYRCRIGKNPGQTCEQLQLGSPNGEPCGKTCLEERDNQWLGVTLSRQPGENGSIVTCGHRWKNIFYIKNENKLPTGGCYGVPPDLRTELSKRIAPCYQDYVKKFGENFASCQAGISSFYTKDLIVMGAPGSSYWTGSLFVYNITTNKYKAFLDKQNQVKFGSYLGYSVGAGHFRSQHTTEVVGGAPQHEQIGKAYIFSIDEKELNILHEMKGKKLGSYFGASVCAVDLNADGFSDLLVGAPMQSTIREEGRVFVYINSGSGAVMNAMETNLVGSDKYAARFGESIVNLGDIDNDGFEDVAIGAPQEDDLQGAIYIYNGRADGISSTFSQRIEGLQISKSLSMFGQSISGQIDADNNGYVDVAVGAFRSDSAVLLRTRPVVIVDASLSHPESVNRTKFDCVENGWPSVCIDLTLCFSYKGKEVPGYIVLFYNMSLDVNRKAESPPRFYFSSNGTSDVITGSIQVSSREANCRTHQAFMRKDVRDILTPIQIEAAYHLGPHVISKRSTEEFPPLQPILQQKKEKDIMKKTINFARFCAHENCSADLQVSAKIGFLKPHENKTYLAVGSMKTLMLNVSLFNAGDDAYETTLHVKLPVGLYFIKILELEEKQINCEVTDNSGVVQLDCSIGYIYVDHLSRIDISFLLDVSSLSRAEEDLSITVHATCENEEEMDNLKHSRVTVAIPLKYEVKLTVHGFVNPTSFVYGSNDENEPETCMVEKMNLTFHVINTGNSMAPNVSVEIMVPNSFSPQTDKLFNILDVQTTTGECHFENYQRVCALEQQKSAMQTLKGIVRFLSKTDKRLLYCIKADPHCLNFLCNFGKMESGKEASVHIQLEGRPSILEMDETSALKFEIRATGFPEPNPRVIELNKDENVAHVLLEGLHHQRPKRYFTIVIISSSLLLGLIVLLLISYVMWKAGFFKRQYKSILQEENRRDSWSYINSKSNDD
T1 sequence (P26010 20-798): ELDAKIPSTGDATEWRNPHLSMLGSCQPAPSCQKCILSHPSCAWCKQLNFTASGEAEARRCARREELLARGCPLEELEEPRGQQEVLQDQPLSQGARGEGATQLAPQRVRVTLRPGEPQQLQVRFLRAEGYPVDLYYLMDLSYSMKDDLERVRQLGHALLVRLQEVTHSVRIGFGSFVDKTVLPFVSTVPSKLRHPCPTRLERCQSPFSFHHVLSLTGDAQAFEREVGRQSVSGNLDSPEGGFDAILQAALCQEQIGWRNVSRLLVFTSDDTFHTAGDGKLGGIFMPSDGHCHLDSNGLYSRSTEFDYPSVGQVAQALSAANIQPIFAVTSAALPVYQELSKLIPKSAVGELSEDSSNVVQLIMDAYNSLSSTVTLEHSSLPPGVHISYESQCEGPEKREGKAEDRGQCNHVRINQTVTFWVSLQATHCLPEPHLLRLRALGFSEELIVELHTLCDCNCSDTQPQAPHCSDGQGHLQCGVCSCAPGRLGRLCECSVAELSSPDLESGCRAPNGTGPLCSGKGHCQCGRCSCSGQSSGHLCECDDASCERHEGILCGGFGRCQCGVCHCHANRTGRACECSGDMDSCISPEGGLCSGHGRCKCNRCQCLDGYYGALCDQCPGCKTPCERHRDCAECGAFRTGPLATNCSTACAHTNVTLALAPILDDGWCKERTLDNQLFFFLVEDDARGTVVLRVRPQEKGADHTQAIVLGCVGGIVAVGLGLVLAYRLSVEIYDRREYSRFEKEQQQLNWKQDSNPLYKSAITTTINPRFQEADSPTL
Kind of test: RPMI-CS-1 cell adhesion assay. Type of test: cell-based. Conditions: adhesion of RPMI B-cell line (expresses α4β7) to CS-1 peptide coated microwells; read-out: RPMI-CS-1 IC50 value range. How it is done:
RPMI-CS-1 Cell Adhesion Assay:
The test compounds were added in increasing concentrations to RPMI cells and then the cell-compound mixture was added to CS-1 coated microwells. The plates were incubated, washed and the percentage of attached cells were quantitated.
The CS-1 derived peptide, […], and the scrambled control peptide, […], were synthesized at Tanabe Research Laboratories, USA, Inc. on a Beckman 990 synthesizer using t-Boc methodology. […] Microtiter plates were coated with 20 μg/ml human serum albumin (HSA) for 2 hours at room temperature, washed once with PBS and derivatized with 10 μg/ml SPDP for 1 hour. […] Unbound peptide was removed from the plates by washing with PBS. To block non-reacted sites, the plates were coated with 100 μl of a 2.5 mg/ml BSA solution in PBS for one hour at 37° C. 100 μl of RPMI cells (2.5×10^6 cells/ml) in Dulbecco's Modified Eagles Medium (DMEM) plus 0.25% ovalbumin were added to peptide coated dishes and incubated for 1 hour at 37° C. […] To do this, the enzyme substrate p-nitrophenyl-N-acetyl-β-D-glucoseaminide is dissolved at 7.5 mM in 0.1 M citrate buffer pH 5 and then mixed with an equal volume of 0.5% Triton X100. 50 μl of the substrate solution was added to the plates and the plates were incubated at 37° C. for 60 minutes.
In this assay, IC50 value ranges (μM) are depicted by A, B, C and D. These ranges as follows. D>5≧C>1≧B>0.3≧A
In the case of “N-(2,6-Dichlorobenzoyl)-4-(2,6-dimethoxyphenyl)-L-phenylalanine 2-pyridylmethyl ester [Example 272]”, the IC50 lay within 300 to 1000 nM.

Regarding `COc1cc(OC)c(-c2ccc(C[C@H](NC(=O)c3c(Cl)cccc3Cl)C(=O)O)cc2)c(OC)c1` [Example 11, N-(2,6-Dichlorobenzoyl)-4-(2,4,6-trimethoxyphenyl)-L-phenylalanine], the IC50 is less than 300 nM.

`COc1ccccc1-c1ccc(C[C@H](NC(=O)c2ccc(C(=O)OC(C)(C)C)cc2Cl)C(=O)O)cc1` [Example 176, N-[2-Chloro-4-(tert-butoxycarbonyl)benzoyl]-4-(2-methoxyphenyl)-L-phenylalanine]: the IC50 fell in the range of 300 to 1000 nM.

Regarding `O=C(NCCCO)c1ccccc1-c1ccc(C[C@H](NC(=O)c2c(Cl)cccc2Cl)C(=O)O)cc1` [Example 57, N-(2,6-Dichlorobenzoyl)-4-[2-[N-(3-hydroxypropyl)carbamoyl]phenyl]-L-phenylalanine], the IC50 is 1000 to 5000 nM.

On to `COC(=O)[C@H](Cc1ccc(-c2ccccc2OC)cc1)NC(=O)c1c(Cl)cccc1Cl` [Example 1A, N-(2,6-Dichlorobenzoyl)-4-(2-methoxyphenyl)-L-phenylalanine methyl ester], for which the IC50 is 300 to 1000 nM.

On to `COc1cc(CN2CCSCC2)cc(OC)c1-c1ccc(C[C@H](NC(=O)c2c(Cl)cccc2Cl)C(=O)O)cc1` [Example 134], for which the IC50 is less than 300 nM.

On to `O=C(N[C@@H](Cc1ccc(-c2ccsc2)cc1)C(=O)O)c1c(Cl)cccc1Cl` [Example 128], for which the 50% inhibitory concentration (IC50) lay within 300 to 1000 nM.

Take `COc1ccccc1-c1ccc(C[C@H](NC(=O)c2ccc(NS(=O)(=O)c3cccs3)cc2Cl)C(=O)O)cc1` [Example 191, N-[2-Chloro-4-[(2-thienylsulfonyl)amino]benzoyl]-4-(2-methoxyphenyl)-L-phenylalanine]: the IC50 is less than 300 nM.

In the case of `COc1cc(CN2CCNCC2)cc(OC)c1-c1ccc(C[C@H](NC(=O)c2c(Cl)cccc2Cl)C(=O)O)cc1` [Example 262, N-(2,6-Dichlorobenzoyl)-4-[2,6-dimethoxy-4-[(1-piperazinyl)methyl]phenyl]-L-phenylalanine], the IC50 is less than 300 nM.

For the compound `CCOC(=O)Nc1cc(C[C@H](NC(=O)c2c(Cl)cccc2Cl)C(=O)O)ccc1-c1ccccc1` [Example 344], the IC50 fell in the range of 1000 to 5000 nM.

For `O=C(N[C@@H](Cc1ccc(-c2ccccc2CNCc2ccccc2)cc1)C(=O)O)c1c(Cl)cccc1Cl` [Example 48, N-(2,6-Dichlorobenzoyl)-4-[2-[(benzylamino)methyl]phenyl]-L-phenylalanine], the IC50 lay within 1000 to 5000 nM.

As to `O=C(N[C@@H](Cc1ccc(-c2cccs2)cc1)C(=O)O)c1c(Cl)cccc1Cl` [Example 4B, N-(2,6-Dichlorobenzoyl)-4-(2-thienyl)-L-phenylalanine], the IC50 was 300 to 1000 nM.

Turning to `NC(=O)Nc1ccccc1-c1ccc(C[C@H](NC(=O)c2c(Cl)cccc2Cl)C(=O)O)cc1` [Example 28, N-(2,6-Dichlorobenzoyl)-4-(2-ureidophenyl)-L-phenylalanine], the IC50 was in the range of 300 to 1000 nM.

Turning to `O=Cc1sccc1-c1ccc(C[C@H](NC(=O)c2c(Cl)cccc2Cl)C(=O)O)cc1` [Example 214, N-(2,6-Dichlorobenzoyl)-4-(2-formyl-3-thienyl)-L-phenylalanine], the half-inhibitory concentration (IC50) lay in the range of 300 to 1000 nM.

In the case of `COc1cccc(OC)c1-c1ccc(C[C@H](NC(=O)c2c(Cl)cccc2Cl)C(=O)OCc2cccnc2)cc1` [Example 273, N-(2,6-Dichlorobenzoyl)-4-(2,6-dimethoxyphenyl)-L-phenylalanine 3-pyridylmethyl ester], the IC50 fell in the range of 1000 to 5000 nM.

In the case of `COc1ccc(S(=O)(=O)Nc2ccc(C(=O)N[C@@H](Cc3ccc(-c4ccccc4OC)cc3)C(=O)O)c(Cl)c2)cc1` [Example 190, N-[2-Chloro-4-[[(4-methoxyphenyl)sulfonyl]amino]-benzoyl]-4-(2-methoxyphenyl)-L-phenylalanine], the IC50 was less than 300 nM.

As to `COc1ccccc1-c1ccc(C[C@H](NC(=O)c2c(Cl)cccc2Cl)C(=O)O)cc1` [Example 8, N-(2,6-Dichlorobenzoyl)-4-(2-methoxyphenyl)-L-phenylalanine], the IC50 was less than 300 nM.

Regarding `Cc1noc(C)c1COc1ccccc1-c1ccc(C[C@H](NC(=O)c2c(Cl)cccc2Cl)C(=O)O)cc1` [Example 41], the IC50 is 1000 to 5000 nM.

For the compound `COc1ccccc1-c1ccc(C[C@H](NC(=O)c2cccnc2Cl)C(=O)O)cc1` [Example 90], the IC50 is 300 to 1000 nM.

`COc1cc(CN2CCCCC2)cc(OC)c1-c1ccc(C[C@H](NC(=O)c2c(Cl)cccc2Cl)C(=O)O)cc1` [Example 256, N-(2,6-Dichlorobenzoyl)-4-[2,6-dimethoxy-4-(piperidinomethyl)phenyl]-L-phenylalanine]: the IC50 is less than 300 nM.

`O=C(N[C@@H](Cc1ccc(-c2c(Cl)cccc2Cl)cc1)C(=O)O)c1c(Cl)cccc1Cl` [Example 141]: the IC50 was in the range of 300 to 1000 nM.

In the case of `COc1cc(OCc2ccsc2)cc(OC)c1-c1ccc(C[C@H](NC(=O)c2c(Cl)cccc2Cl)C(=O)O)cc1` [Example 220, N-(2,6-Dichlorobenzoyl)-4-[2,6-dimethoxy-4-(3-thienylmethoxy)phenyl]-L-phenylalanine], the concentration for half-maximal inhibition (IC50) is less than 300 nM.

As to `COC(=O)[C@H](Cc1ccc(-c2ccccc2OCC#N)cc1)NC(=O)c1c(Cl)cccc1Cl` [Example 33, N-(2,6-Dichlorobenzoyl)-4-[2-(cyanomethoxy)phenyl]-L-phenylalanine methyl ester], the IC50 was in the range of 300 to 1000 nM.

Take `COc1cccc(OC)c1-c1ccc(C[C@H](NC(=O)c2c(Cl)cccc2Cl)C(=O)NS(C)(=O)=O)cc1` [Example 267, N-(2,6-Dichlorobenzoyl)-4-(2,6-dimethoxyphenyl)-L-phenylalanine N-(methylsulfonyl)amide]: the IC50 was greater than 5000 nM.

With `COc1cc(C#N)c(-c2ccc(C[C@H](NC(=O)c3c(Cl)cccc3Cl)C(=O)O)cc2)c(OC)c1` [Example 142], the IC50 was less than 300 nM.

Regarding `CCCCNC(=O)c1ccccc1-c1ccc(C[C@H](NC(=O)c2c(Cl)cccc2Cl)C(=O)O)cc1` [Example 55, N-(2,6-Dichlorobenzoyl)-4-[2-(N-n-butylcarbamoyl)phenyl]-L-phenylalanine], the IC50 lay in the range of 1000 to 5000 nM.

Regarding `COc1cc(OCc2ccccn2)cc(OC)c1-c1ccc(C[C@H](NC(=O)c2c(Cl)cccc2Cl)C(=O)O)cc1` [Example 349], the IC50 is less than 300 nM.
